From article PMC9000886, “Protection-Free Strategy for the Synthesis of Boro-Depsipeptides in Aqueous Media under Microwave-Assisted Conditions” (Molecules, 2022) come the findings set out here.

A short description of the data set: Solubility observed when preparing compounds for the cytotoxicity experiments. The settings on record: reason for exclusion from cytotoxicity experiments; stocks 1 mM in 100% DMSO. It counts as physicochemical. The procedure:
HEK293 cells were plated at 70% density in 24-well plates at 37 °C. All compounds were first dissolved in 100% DMSO to give 1 mM as a stock for the following dilutions. […] Further, the cell viability was measured by the 3-(4,5-Dimethyl-2-thiazolyl)-2,5-diphenyl-2H-tetrazolium bromide (MTT) assay. After incubating for 1h, the reaction product was read at 570 nm using a Synergy HT microplate reader (BioTek Instruments, Winooski, VT, USA).
Take `CC(C)C(=O)OC(C(=O)NC(C)(C)C)c1ccc(F)c(B(O)O)c1` (centres unmarked) [Compound 4e, (5-(2-(Tert-Butylamino)-1-(Isobutyryloxy)-2-Oxoethyl)-2-Fluorophenyl)boronic Acid]: the solubility result is given as “poor solubility”.

In the case of `CC(C)(C)NC(=O)COC(=O)c1ccc(B(O)O)cc1` [Compound 5a, (4-((2-(Tert-Butylamino)-2-Oxoethoxy)carbonyl)phenyl)boronic Acid], the solubility result is given as “poor solubility”.

As for `CC(C)(C)NC(=O)C(OC(=O)c1ccc(B(O)O)cc1)c1ccccc1F` (centres unmarked) [Compound 5h, (4-((2-(Tert-Butylamino)-1-(2-Fluorophenyl)-2-Oxoethoxy)carbonyl)phenyl)boronic Acid], the solubility entry is “poor solubility”.

For `CC(C)(C)NC(=O)C(OC(=O)c1ccc(B(O)O)cc1)c1ccnc2ccccc12` (centres unmarked) [Compound 5i, (4-((2-(Tert-Butylamino)-2-Oxo-1-(Quinolin-4-yl)ethoxy)carbonyl)phenyl)boronic Acid], the solubility result is given as “poor solubility”.

Turning to `CC(C)(C)NC(=O)COC(=O)c1ccc(B(O)O)c([N+](=O)[O-])c1` [Compound 5l, (4-((2-(Tert-Butylamino)-2-Oxoethoxy)carbonyl)-2-Nitrophenyl)boronic Acid], the solubility result is reported as “poor solubility”.
